Measured values as given in patent US20180353524A1, “CANCER TREATMENT USING 2-DEOXY-2-FLUORO-L-FUCOSE IN COMBINATION WITH A CHECKPOINT INHIBITOR” (SEATTLE GENETICS, INC., priority 2015, published 2018).

How the values were obtained:
[1] = test system: T-cells (TCR binding of antigen specific tetramers); assay: Tetramer staining of T-cells; format: cell-based, human; details: T-cells expanded with 100 μM
Galectin-3 = assay: Activated T-cell expression of Galectin-3 (FACS); format: cell-based, human; details: CD3/CD28 activated T-cells, overnight
Experimental: Purified T-cells were plated in 12-well plates (10^6 cells/well, 1-2 mL T-cell medium) and were activated with CD3/CD28 beads (4 μL beads/2 mL media, Miltenyi Biotec). Cells were incubated at 37° C. overnight and were then analyzed for Galectin-3 expression after fixation and permeabilization followed by FACS analysis.

regulatory T-cells = assay: Regulatory T-cell and FOXp3 analysis in T-cell cultures (FACS); format: cell-based, human; details: T-cell culture
Experimental: Regulatory T-cells in cultures were identified using the Human Regulatory T-cell Cocktail (BD Pharmingen™) and analyzed using FACS. Briefly, cells were washed into BD stain buffer (BSA) with human Fc block (EMD Millipore) and incubated on ice for 30 min. Cells were then stained with fluorescently labeled Human Regulatory T-cell Cocktail (BD Pharmingen™, 1:100 in BD stain buffer (BSA)) or with appropriate isotype controls (ice, dark, 40 min). Cells were then washed twice in BD stain buffer (BSA) and analyzed on an LSRII flow cytometer. Regulatory T-cells were identified as CD4+, CD25+ and CD127 LOW.
T-cells were prepared in the same manner as for intracellular staining as above, where they were fixed and permeabilized and stained with an anti-FOXp3 antibody (BD Biosciences) and analyzed by FACS. In brief, after incubation in BD stain buffer (FBS) with Human Fc block (Miltenyi Biotec) on ice for 30 min as described previously, cells were stained with anti-CD4 antibody for 20 min in the dark (RT). An equal volume of BD stain buffer (FBS) was added and samples were spun and washed once in BD stain buffer (FBS) followed by resuspension in cold BD Cytofix™ fixation buffer for 30 min at RT. Cells were pelleted washed twice in BD stain buffer (FBS), resuspended, and incubated in BD Perm/Wash™ buffer at RT for 30 min. […]

[2] = test system: regulatory T-cells (CD3+, CD4+, CD25+, FOXp3+); assay: Regulatory T-cells in blood of rats dosed by oral gavage for 42 days (flow cytometry); format: in vivo, Sprague-Dawley rats; details: for Treg % Gated, percent change relative to pretest means: rat
Experimental: Sprague-Dawley rats (CD®[Crl:CD®(SD)] were administered 2-deoxy-2-fluoro-L-fucose by oral gavage daily for 42 consecutive days at doses of 0, 125, 500 or 2000 mg/kg/day. Blood samples (0.4 mL/timepoint) were collected in sodium heparin at pretest and days 2, 7, 22, 43, 49, 56, and 71 of the study. Samples were processed within 24 hours of collection. Aliquots of the specimens were stained with predetermined volumes of previously tested and titered monoclonal antibodies specific for each marker. The red cells in each tube were lysed and after staining the cells were fixed with Versalyse Lysis Buffer solution (Beckman Coulter). The prepared specimens were analyzed on a Beckman-Coulter FC 500 MPL flow cytometer.

4T1 cells = assay: 4T1 mouse tumor study, tumor infiltrating immune cells; format: in vivo, balb/c mice; details: 4T1 tumors, 20 mM in drinking water
Experimental: To evaluate the effect of 2FF treatment on tumor infiltrating immune cells balb/c mice were implanted with 4T1 cells (2×10^4 injected sc.) and on the same day started on 20 mM 2FF drinking water. On day 19 (when tumors were approximately ˜250-300 mm^3) or day 28 (when tumors were ˜800-1000 mm^3) tumors were removed, finely minced with a razor blade and suspend in 5 mL cold disassociation buffer (DMEM (high glucose) media, 5% FBS, 1 M HEPES, 2 mg/mL collagenase D (Roche), 0.1 mg/mL DNAse I (50 mg/mL stock in 20 mM Tris-HCL (ph7.5), 1 mM MgCl2, 50% glycerol) and transferred to a Miltenyi C-tube. GentleMACS was run on each tube and the tubes incubated at 37° C. for 40 minutes with continuous rotation. GentleMACS was then run twice and the tubes quickly spun down to collect the tumor in the bottom of the tube. The tube contents was then passed through a 70 μm mesh filter into a 50 mL falcon tube using the rubber stopper of a syringe to gently dissociate the tissue. The filter was washed with 5 mL of cold enzyme inhibitor buffer (DMEM (high glucose), 0.25 M EDTA) and the tube spun down, supernatant discarded and the samples re-suspend in PBS. Cells were then stained with eFluor®506 viability dye (eBioscience) following the manufactures instructions. Cells were washed twice in FACS staining buffer (0.5% FBS, 0.05% NaN3) and immune phenotyped with three different panels of antibodies, each containing an antibody against CD45 to identify immune cells. The cells phenotyped for dendritic cell antigens were stained with the desired antiboides for 30 minutes in the dark on ice, washed twice in staining buffer and resuspended in 1:4 PBS:fixation buffer (Biolgend) and stored at 4° C. overnight. The following day cells were washed in FACS stain buffer and analyzed on the LSRII flow cytometer. The cells phenotyped for T regulatory cells were first stained with the desired antibodies against cell surface antigens for 30 minutes in the dark on ice. […]

Structure (SMILES): C[C@@H]1OC(O)[C@@H](F)[C@H](O)[C@@H]1O (stereo partly drawn) [2-deoxy-2-fluoro-L-fucose]
- EBV-specific tetramer binding to treated T-cells vs control cells (flow cytometry) [1]: increase in EBV-specific tetramer binding
- tetramer binding with other antigens (flu, CMV) to treated T-cells vs control cells [1]: slight increases
- galectin-3 levels in T-cells (Galectin-3): reduction in galectin-3 levels
- regulatory T-cell populations (percent of total cells) (regulatory T-cells; CD4+, CD25+, CD127 LOW): decrease in regulatory T-cell populations
- expression of FOXp3+ in treated T-cells (regulatory T-cells; gated on CD4+): decreased expression of FOXp3+
- Treg % Gated, percent change relative to pretest means ([2]; F, 125 mg/kg/day oral gavage, Day 2): −54%
- Treg % Gated, percent change relative to pretest means ([2]; F, 125 mg/kg/day oral gavage, Day 7): −67%
- Treg % Gated, percent change relative to pretest means ([2]; F, 125 mg/kg/day oral gavage, Day 22): −61%
- Treg % Gated, percent change relative to pretest means ([2]; F, 125 mg/kg/day oral gavage, Day 43): −64%
- Treg % Gated, percent change relative to pretest means ([2]; F, 125 mg/kg/day oral gavage, Day 49, recovery period): −40%
- Treg % Gated, percent change relative to pretest means ([2]; F, 125 mg/kg/day oral gavage, Day 56, recovery period): −51%
- Treg % Gated, percent change relative to pretest means ([2]; F, 125 mg/kg/day oral gavage, Day 71, recovery period): −45%
- Treg % Gated, percent change relative to pretest means ([2]; F, 500 mg/kg/day oral gavage, Day 2): −56%
- Treg % Gated, percent change relative to pretest means ([2]; F, 500 mg/kg/day oral gavage, Day 7): −60%
- Treg % Gated, percent change relative to pretest means ([2]; F, 500 mg/kg/day oral gavage, Day 22): −60%
- Treg % Gated, percent change relative to pretest means ([2]; F, 500 mg/kg/day oral gavage, Day 43): −50%
- Treg % Gated, percent change relative to pretest means ([2]; F, 500 mg/kg/day oral gavage, Day 49, recovery period): −43%
- Treg % Gated, percent change relative to pretest means ([2]; F, 500 mg/kg/day oral gavage, Day 56, recovery period): −38%
- Treg % Gated, percent change relative to pretest means ([2]; F, 500 mg/kg/day oral gavage, Day 71, recovery period): −40%
- Treg % Gated, percent change relative to pretest means ([2]; F, 2000 mg/kg/day oral gavage, Day 2): −41%
- Treg % Gated, percent change relative to pretest means ([2]; F, 2000 mg/kg/day oral gavage, Day 7): −39%
- Treg % Gated, percent change relative to pretest means ([2]; F, 2000 mg/kg/day oral gavage, Day 22): −43%
- Treg % Gated, percent change relative to pretest means ([2]; F, 2000 mg/kg/day oral gavage, Day 43): −28%
- Treg % Gated, percent change relative to pretest means ([2]; F, 2000 mg/kg/day oral gavage, Day 49, recovery period): −19%
- Treg % Gated, percent change relative to pretest means ([2]; F, 2000 mg/kg/day oral gavage, Day 56, recovery period): −16%
- Treg % Gated, percent change relative to pretest means ([2]; F, 2000 mg/kg/day oral gavage, Day 71, recovery period): −26%
- Treg % Gated, percent change relative to pretest means ([2]; M, 125 mg/kg/day oral gavage, Day 2): −44%
- Treg % Gated, percent change relative to pretest means ([2]; M, 125 mg/kg/day oral gavage, Day 7): −64%
- Treg % Gated, percent change relative to pretest means ([2]; M, 125 mg/kg/day oral gavage, Day 22): −65%
- Treg % Gated, percent change relative to pretest means ([2]; M, 125 mg/kg/day oral gavage, Day 43): −59%
- Treg % Gated, percent change relative to pretest means ([2]; M, 125 mg/kg/day oral gavage, Day 49, recovery period): −46%
- Treg % Gated, percent change relative to pretest means ([2]; M, 125 mg/kg/day oral gavage, Day 56, recovery period): −47%
- Treg % Gated, percent change relative to pretest means ([2]; M, 125 mg/kg/day oral gavage, Day 71, recovery period): −42%
- Treg % Gated, percent change relative to pretest means ([2]; M, 500 mg/kg/day oral gavage, Day 2): −61%
- Treg % Gated, percent change relative to pretest means ([2]; M, 500 mg/kg/day oral gavage, Day 7): −63%
- Treg % Gated, percent change relative to pretest means ([2]; M, 500 mg/kg/day oral gavage, Day 22): −64%
- Treg % Gated, percent change relative to pretest means ([2]; M, 500 mg/kg/day oral gavage, Day 43): −58%
- Treg % Gated, percent change relative to pretest means ([2]; M, 500 mg/kg/day oral gavage, Day 49, recovery period): −48%
- Treg % Gated, percent change relative to pretest means ([2]; M, 500 mg/kg/day oral gavage, Day 56, recovery period): −47%
- Treg % Gated, percent change relative to pretest means ([2]; M, 500 mg/kg/day oral gavage, Day 71, recovery period): −48%
- Treg % Gated, percent change relative to pretest means ([2]; M, 2000 mg/kg/day oral gavage, Day 2): −42%
- Treg % Gated, percent change relative to pretest means ([2]; M, 2000 mg/kg/day oral gavage, Day 7): −43%
- Treg % Gated, percent change relative to pretest means ([2]; M, 2000 mg/kg/day oral gavage, Day 22): −51%
- Treg % Gated, percent change relative to pretest means ([2]; M, 2000 mg/kg/day oral gavage, Day 43): −29%
- Treg % Gated, percent change relative to pretest means ([2]; M, 2000 mg/kg/day oral gavage, Day 49, recovery period): −6%
- Treg % Gated, percent change relative to pretest means ([2]; M, 2000 mg/kg/day oral gavage, Day 56, recovery period): −12%
- Treg % Gated, percent change relative to pretest means ([2]; M, 2000 mg/kg/day oral gavage, Day 71, recovery period): −13%
- relative proportion of regulatory T-cells (CD3+, CD4+, CD25+, FOXp3+) relative to pretest values ([2]; rats, all dosed groups (125, 500, 2000 mg/kg/day), beginning at Day 2): tended to decrease
- T regulatory cells in tumor (4T1 cells; day 19 after implantation): significantly decreased T regulatory cells
- dendritic cells in tumor (4T1 cells; day 19 after implantation): increased dendritic cells which are more activated
- memory and effector T cells in tumor (4T1 cells; day 28 after implantation): increased memory and effector T cells
